Values of other authors, collected in US20030153514A1, “Remedies for cancer” (priority 2000, published 2003).

Test system: NKT cells (Vα24Vβ11)
Details: cancer-bearing mice

For `CCCCCCCCCCCCCCCCCCCCCCCCCC(=O)N[C@@H](CO[C@H]1O[C@H](CO)[C@H](O)[C@H](O)[C@H]1O)[C@H](O)[C@H](O)CCCCCCCCCCCCCC` [α-galactosylceramide], which NKT cells is on record?
The NKT cells was “activated”.

And the disappearance of cancer?
Its disappearance of cancer is “not observed”.

What about the metastasis of the same compound?
The metastasis was “suppressed”.
